Experimental data reported in US7763604B2, “Methods for administration of a farnesyl dibenzodiazepinone” (Thallion Pharma Ceuticals, Inc., priority 2005, dated 2010).

How the values were obtained:
[1] = pharmacokinetics of 14-day CIV infusion in rats; assay type: in vivo, Sprague-Dawley rats; details: calculated at the end of treatment
Experimental: (§1) Sprague-Dawley rats received an intravenous continuous infusion over 14 days of Formula I at 25 mg/kg/day, 50 mg/kg/day, or 75 mg/kg/day at a rate of 2 mL/kg/h for 14 consecutive days (same formulation as in Example 7). Blood was collected from the jugular vein in tubes containing K2 EDTA from 3 rats/sex/group at the following time points: 2, 6, and 12 hours after the start of dosing on Day 1, on Day 2 at 6 hours (approximately 30 hours after the start of dosing), on Days 6 and 10 at 6 hours, and on Day 15, 1 hour prior the end of dosing, and then at 5 min, 15 min, 30 min, 1 h, and 2 h after the end of dosing.

[2] = toxicity of 14-day infusion in rats; assay type: in vivo; details: all treated and control groups, attributed to the vehicle
Experimental: as §1
The toxicity was due to the vehicle and was attributed to smaller size of infusion vessels, and concurrent catheter tract infection.

[3] = pharmacokinetics and tissue levels after 30 mg/kg bolus IV, IP, SC and PO in mice; assay type: in vivo, female Crl: CD1 mice
Experimental: The compound of formula I was dissolved in ethanol (5%), Polysorbate 80 (15%), PEG 400 (5%) and dextrose (5%) at a final concentration of 6 mg/ml (IV, IP and SC administration). For oral administration, the compound of Formula I was solubilized in Chremophor® EL/Ethanol (50%:50%) at a final concentration of 6 mg/ml. Prior to dosing, animals (female Crl: CD1 mice; 6 weeks of age, 22-24 g) were weighed, randomly selected and assigned to the different treatment groups. The compound of Formula I was administered by the bolus intravenous (IV), bolus subcutaneous (SC), bolus intraperitoneal (IP), or oral (PO) route to the assigned animals. The dosing volume of Formula I was 5 mL per kg body weight. Animals were anesthetized prior to bleeding with 5% isoflurane. Blood was collected into microtainer tubes containing the anticoagulant K2EDTA by cardiac puncture from each of 4 animals per bleeding timepoint (2 min, 5 min, 15 min, 30 min, 1 h, 2 h, 4 h and 8 h). Following collection, the samples were centrifuged and the plasma obtained from each sample was recovered and stored frozen (at approximately −80° C.) pending analysis. At the 5 min and 30 min time points, the following organs were harvested from each animal: brain, lungs, skeletal muscle, fat tissue, kidneys, spleen, thymus and liver. Tissues were frozen (at approximately −80° C.) pending analysis. Samples were analysed by LC/MS/MS.
Plasma values of the compound of Formula I falling below the limit of quantitation (LOQ) were set to zero. […] The following pharmacokinetic parameters were calculated: area under the plasma concentration versus time curve from time zero to the last measurable concentration time point (AUCO-t), area under the plasma concentration versus time curve extrapolated to infinity (AUCinf), maximum observed plasma concentration (Cmax), time of maximum plasma concentration (tmax), apparent first-order terminal elimination rate constant (kel), apparent first-order terminal elimination half-life will be calculated as 0.693/kel (t1/2). The systemic clearance (CL) of the compound of Formula I after intravenous administration was calculated using Dose/AUCinf. Pharmacokinetic parameters were calculated using Kinetica™ 4.1.1 (InnaPhase Corporation, Philadelphia, Pa.).

CC(C)=CCC/C(C)=C/CC/C(C)=C/CN1C(=O)c2cccc(O)c2Nc2c(O)cc(O)cc21 [Formula I, 10-farnesyl-4,6,8-trihydroxy-dibenzodiazepin-11-one]
T1/2z ([1]; CIV 25 mg/kg/day): 1.6 h | T1/2z ([1]; CIV 50 mg/kg/day): 1.2 h | T1/2z ([1]; CIV 75 mg/kg/day): 1.2 h | findings at the site of infusion [2]: necrotization and inflammatory lesions at the site of infusion | peak plasma concentration ([3]; IP bolus 30 mg/kg): 7.8 µM | time to peak plasma concentration ([3]; IP bolus 30 mg/kg): 15 min | tissue distribution ([3]; IV and IP bolus 30 mg/kg, 30 min time point): well distributed | drug levels after oral administration ([3]; PO 30 mg/kg): moderate but sustained drug levels | peak plasma concentration ([3]; SC bolus 30 mg/kg): 2.3 µM | time to peak plasma concentration ([3]; SC bolus 30 mg/kg): 60 min | tissue levels compared with IP ([3]; SC bolus 30 mg/kg, 30 min time point): significantly lower | t1/2,α ([3]; bolus IV 30 mg/kg, plasma, mice, 30 mg/kg): 4.7 min | plasma concentration, initial ([3]; bolus IV 30 mg/kg, start of decline): ~425 µM | time plasma concentration is maintained at therapeutically relevant levels ([3]; intraperitoneal and subcutaneous bolus 30 mg/kg, mice): over 8 hours
